In patent US20090269798A1, “METHOD AND SYSTEM FOR SELECTING CHEMOTHERAPEUTIC AGENTS” (UNIVERSITY OF NORTHERN IOWA RESEARCH FOUNDATION, priority 2008, published 2009):
Where two headings read alike, the source gives them in different places. Marks after values point to notes of the source that are not given here.

Experiments:
Jurkat cells = conditions: four-hour exposure, 25 μM H2O2
[1] = system: YT-INDY (human NK cell leukemia); conditions: 96 hours, ± standard deviation
Description: (§1) In the experiments shown in Table1 a/b, the indicated concentrations of hydrogen peroxide were added to the various types of cells and they were incubated for 96 hours until growth was measured by the ^3H-thymidine assay or viability determined by the 3-(4,5-diphenylthiazol-2-yl)-2,5-diphenyltetrazolium bromide (“MTT”) assay. Numbers represent triplicate or quadruplicate determinations.

[2] = system: K-562 (human erythroleukemia); conditions: 96 hours, ± standard deviation
Description: as §1

[3] = system: THP-1 (human monocytic leukemia); conditions: 96 hours, ± standard deviation
Description: as §1

Normal cells = conditions: 96 hours, ± standard deviation
Description: as §1

[4] = system: Jurkat (human T lymphocytic leukemia); conditions: 96 hours, ± standard deviation
Description: as §1

How did the “killing of Jurkat cells” value (Jurkat cells) turn out when OO [Hydrogen Peroxide, hydrogen peroxide] was run?
Its value is “significant killing”.

And the “amount of cell division remaining (compared to control cells without hydrogen peroxide)” value ([1]; 25 μM hydrogen peroxide)?
The value was 109.2 ± 2.4.

And the “level of live cells remaining (compared to control cells without hydrogen peroxide)” value ([1]; 25 μM hydrogen peroxide)?
The value was 68.2 ± 4.8.

And the “amount of cell division remaining (compared to control cells without hydrogen peroxide)” value ([1]; 50 μM hydrogen peroxide)?
The value was 2.8 ± 0.8.

And the “level of live cells remaining (compared to control cells without hydrogen peroxide)” value ([1]; 50 μM hydrogen peroxide)?
Its value is 32.1 ± 2.6.

What about the “amount of cell division remaining (compared to control cells without hydrogen peroxide)” value ([1]; 100 μM hydrogen peroxide) of the same compound?
Its value is 3.7 ± 2.5.

What about the “level of live cells remaining (compared to control cells without hydrogen peroxide)” value ([1]; 100 μM hydrogen peroxide) of the same compound?
Its value is 29.7 ± 1.0.

And the “amount of cell division remaining (compared to control cells without hydrogen peroxide)” value ([1]; 200 μM hydrogen peroxide)?
The value was 10.2 ± 3.5.

What about the “level of live cells remaining (compared to control cells without hydrogen peroxide)” value ([1]; 200 μM hydrogen peroxide) of the same compound?
Its value is 27.5 ± 0.5.

What about the “amount of cell division remaining (compared to control cells without hydrogen peroxide)” value ([2]; 25 μM hydrogen peroxide) of the same compound?
The value was 41.6 ± 24.5.

What about the “level of live cells remaining (compared to control cells without hydrogen peroxide)” value ([2]; 25 μM hydrogen peroxide) of the same compound?
The value was 58.6 ± 3.2.

What about the “amount of cell division remaining (compared to control cells without hydrogen peroxide)” value ([2]; 50 μM hydrogen peroxide) of the same compound?
The value was 7.1 ± 5.1.

What about the “level of live cells remaining (compared to control cells without hydrogen peroxide)” value ([2]; 50 μM hydrogen peroxide) of the same compound?
Its value is 19.6 ± 1.2.

What about the “amount of cell division remaining (compared to control cells without hydrogen peroxide)” value ([2]; 100 μM hydrogen peroxide) of the same compound?
The value was 4.3 ± 2.6.

And the “level of live cells remaining (compared to control cells without hydrogen peroxide)” value ([2]; 100 μM hydrogen peroxide)?
Its value is 8.9 ± 0.2.

What about the “amount of cell division remaining (compared to control cells without hydrogen peroxide)” value ([2]; 200 μM hydrogen peroxide) of the same compound?
The value was 2.7 ± 0.3.

And the “level of live cells remaining (compared to control cells without hydrogen peroxide)” value ([2]; 200 μM hydrogen peroxide)?
The value was 8.0 ± 0.4.

What about the “amount of cell division remaining (compared to control cells without hydrogen peroxide)” value ([3]; 25 μM hydrogen peroxide) of the same compound?
The value was 115.8 ± 10.6.

What about the “level of live cells remaining (compared to control cells without hydrogen peroxide)” value ([3]; 25 μM hydrogen peroxide) of the same compound?
Its value is 103.0 ± 2.2.

And the “amount of cell division remaining (compared to control cells without hydrogen peroxide)” value ([3]; 50 μM hydrogen peroxide)?
The value was 102.8 ± 5.9.

And the “level of live cells remaining (compared to control cells without hydrogen peroxide)” value ([3]; 50 μM hydrogen peroxide)?
Its value is 101.8 ± 1.8.

What about the “amount of cell division remaining (compared to control cells without hydrogen peroxide)” value ([3]; 100 μM hydrogen peroxide) of the same compound?
The value was 91.0 ± 0.2.

And the “level of live cells remaining (compared to control cells without hydrogen peroxide)” value ([3]; 100 μM hydrogen peroxide)?
The value was 95.6 ± 0.6.

What about the “amount of cell division remaining (compared to control cells without hydrogen peroxide)” value ([3]; 200 μM hydrogen peroxide) of the same compound?
Its value is 63.2 ± 7.1.

What about the “level of live cells remaining (compared to control cells without hydrogen peroxide)” value ([3]; 200 μM hydrogen peroxide) of the same compound?
Its value is 65.6 ± 2.0.

What about the “amount of cell division remaining (compared to control cells without hydrogen peroxide)” value (Normal cells; 25 μM hydrogen peroxide) of the same compound?
The value was 68.2 ± 5.4^b.

And the “level of live cells remaining (compared to control cells without hydrogen peroxide)” value (Normal cells; 25 μM hydrogen peroxide)?
The value was 100.6 ± 3.3^b.

What about the “amount of cell division remaining (compared to control cells without hydrogen peroxide)” value (Normal cells; 50 μM hydrogen peroxide) of the same compound?
The value was 84.4 ± 12.3.

What about the “level of live cells remaining (compared to control cells without hydrogen peroxide)” value (Normal cells; 50 μM hydrogen peroxide) of the same compound?
The value was 102.7 ± 5.5.

What about the “amount of cell division remaining (compared to control cells without hydrogen peroxide)” value (Normal cells; 100 μM hydrogen peroxide) of the same compound?
The value was 92.5 ± 19.9.

What about the “level of live cells remaining (compared to control cells without hydrogen peroxide)” value (Normal cells; 100 μM hydrogen peroxide) of the same compound?
Its value is 89.4 ± 0.9.

What about the “amount of cell division remaining (compared to control cells without hydrogen peroxide)” value (Normal cells; 200 μM hydrogen peroxide) of the same compound?
Its value is 81.9 ± 9.2.

What about the “level of live cells remaining (compared to control cells without hydrogen peroxide)” value (Normal cells; 200 μM hydrogen peroxide) of the same compound?
The value was 83.0 ± 1.8.

What about the “amount of cell division remaining (compared to control cells without hydrogen peroxide)” value ([4]; 25 μM hydrogen peroxide) of the same compound?
Its value is 1.2 ± 0.4.

And the “amount of cell division remaining (compared to control cells without hydrogen peroxide)” value ([4]; 50 μM hydrogen peroxide)?
The value was 2.4 ± 1.1.

And the “amount of cell division remaining (compared to control cells without hydrogen peroxide)” value ([4]; 100 μM hydrogen peroxide)?
Its value is 1.3 ± 1.1.

What about the “amount of cell division remaining (compared to control cells without hydrogen peroxide)” value ([4]; 200 μM hydrogen peroxide) of the same compound?
Its value is 1.0 ± 0.2.
